Laboratory results taken from US9233981B1, “Substituted phenyl hexahydropyrano[3,4-d][1,3]thiazin-2-amine compounds” (Pfizer Inc., priority 2013, dated 2016).

How the values were obtained:
[1] = system: sAPPβ levels in H4 human neuroglioma cells over-expressing the wild-type human APP695; assay: Whole Cell Assay (In Vitro sAPPβ Assay), TMB-ELISA; assay type: cell-based; details: 18 hours, geometric mean of 2-3 determinations, Examples 32-34 (footnote b) single determination
Protocol: Whole Cell Assay (In Vitro sAPPpβ Assay):
H4 human neuroglioma cells over-expressing the wild-type human APP695 are treated for 18 hours with compound in a final concentration 1% DMSO. sAPPβ levels are measured using TMB-ELISA with capture APP N-terminal antibody (Affinity BioReagents, OMA1-03132), wild-type sAPPβ specific reporter p192 (Elan), and tertiary anti rabbit-HRP (GE Healthcare).

BACE1 enzyme = BACE1 enzyme (Homo sapiens (Human), UniProt P56817); assay: BACE1 Cell-Free Assay (fluorescence polarization, cleavage of synthetic APP substrate); assay type: biochemical; details: geometric mean of 2-3 determinations; Examples 32-34 (footnote b) single determination
Source text: Beta-secretase (BACE) is one of the enzymes involved in the generation of the amyloid beta peptide found in the amyloid plaques of Alzheimer's Disease patients. This assay measures the inhibition of the beta-secretase enzyme as it cleaves a non-native peptide.
A synthetic APP substrate that can be cleaved by beta-secretase having N-terminal biotin and made fluorescent by the covalent attachment of Oregon Green at the Cys residue is used to assay beta-secretase activity in the presence or absence of the inhibitory compounds. The substrate is Biotin-GLTNIKTEEISEISY^EVEFR-C[Oregon Green]KK-OH. The BACE1 enzyme is affinity purified material from conditioned media of CHO-K1 cells that have been transfected with a soluble BACE construct (BACE1deltaTM96His). Compounds are incubated in a log dose response curve from a top concentration of 100 μM with BACE1 enzyme and the biotinylated fluorescent peptide in 384-well black plates (Thermo Scientific #4318). BACE1 is at a final concentration of 0.1 nM with a final concentration of peptide substrate of 150 nM in a reaction volume of 30 μL assay buffer [100 mM sodium acetate, pH 4.5 (brought to pH with acetic acid), and 0.001% Tween-20]. Plates are covered and incubated for 3 hours at 37° C. The reaction is stopped with the addition of 30 μL of 1.5 μM Streptavidin (Pierce, #21125). After a 10 minute incubation at room temperature, plates are read on a PerkinElmer EnVision for fluorescence polarization (Ex485 nm/Em530 nm). The activity of the beta-secretase enzyme is detected by changes in the fluorescence polarization that occur when the substrate is cleaved by the enzyme.

Sequence of BACE1 enzyme (P56817 46-457): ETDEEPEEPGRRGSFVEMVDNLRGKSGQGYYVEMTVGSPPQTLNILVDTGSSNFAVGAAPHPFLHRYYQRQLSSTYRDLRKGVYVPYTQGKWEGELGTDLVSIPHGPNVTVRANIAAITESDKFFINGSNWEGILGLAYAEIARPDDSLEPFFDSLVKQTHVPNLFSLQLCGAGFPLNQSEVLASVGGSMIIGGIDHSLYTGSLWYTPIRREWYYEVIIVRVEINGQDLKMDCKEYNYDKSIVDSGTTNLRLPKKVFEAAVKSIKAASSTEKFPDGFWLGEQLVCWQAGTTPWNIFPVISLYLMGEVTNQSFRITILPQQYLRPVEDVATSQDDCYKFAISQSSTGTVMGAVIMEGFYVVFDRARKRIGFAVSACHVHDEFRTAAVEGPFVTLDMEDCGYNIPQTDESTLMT

| IC50 [1] | IC50 (BACE1 enzyme) | Structure (SMILES) |
| --- | --- | --- |
| 0.055 nM | 210 nM | COC(C)c1ccc([C@H]2C[C@H]3CSC(N)=N[C@@]3(c3ccc(F)cc3F)CO2)cc1 (stereo partly drawn) [Example 28, (4aR,6R,8aS)-8a-(2,4-difluorophenyl)-6-[4-(1-methoxyethyl)phenyl]-4,4a,5,6,8,8a-hexahydropyrano[3,4-d][1,3]thiazin-2-amine] |
| 0.012 nM | 99 nM | N#Cc1cccc([C@H]2C[C@H]3CSC(N)=N[C@@]3(c3ccc(F)cc3F)CO2)c1 [Example 29, 3-[(4aR,6R,8aS)-2-amino-8a-(2,4-difluorophenyl)-4,4a,5,6,8,8a-hexahydropyrano[3,4-d][1,3]thiazin-6-yl]benzonitrile] |
| 0.004 nM | 15 nM | C[C@H]1SC(N)=N[C@@]2(c3ccc(F)cc3F)CO[C@@H](c3ccc(F)cc3)C[C@@H]12 [Example 32, (4R,4aR,6R,8aS)-8a-(2,4-Difluorophenyl)-6-(4-fluorophenyl)-4-methyl-4,4a,5,6,8,8a-hexahydropyrano[3,4-d][1,3]thiazin-2-amine] |
| 0.006 nM | 11 nM | C[C@H]1SC(N)=N[C@@]2(c3ccc(F)cc3F)CO[C@@H](c3ccc(C#N)cc3)C[C@@H]12 [Example 33, (4R,4aR,6R,8aS)-8a-(2,4-Difluorophenyl)-6-(4-cyanophenyl)-4-methyl-4,4a,5,6,8,8a-hexahydropyrano[3,4-d][1,3]thiazin-2-amine] |
| 0.004 nM | 14 nM | C[C@H]1SC(N)=N[C@@]2(c3ccc(F)cc3F)CO[C@@H](c3cccc(C#N)c3)C[C@@H]12 [Example 34, (4R,4aR,6R,8aS)-8a-(2,4-Difluorophenyl)-6-(3-cyanophenyl)-4-methyl-4,4a,5,6,8,8a-hexahydropyrano[3,4-d][1,3]thiazin-2-amine] |

| Structure (SMILES) | IC50 [1] | IC50 (BACE1 enzyme) |
| --- | --- | --- |
| NC1=N[C@@]2(c3ccc(F)cc3F)CO[C@@H](c3ccc4c(c3)OCO4)C[C@H]2CS1 [Example 27, (4aR,6R,8aS)-6-(1,3-benzodioxol-5-yl)-8a-(2,4-difluorophenyl)-4,4a, 5,6,8,8a-hexahydropyrano[3,4-d][1,3]thiazin-2-amine] | 0.008 nM | 19 nM |
